In article PMC12022903, “Evaluation of drug-drug interaction between Suraxavir Marboxil (GP681) and itraconazole, and assessment of the impact of gene polymorphism” (Frontiers in Pharmacology, 2025):
Values joined by “and” are separate entries in the source; they are usually repeats but may differ in a detail not shown here. Equal entries are not always repeated.

Assay: Pharmacokinetic parameters of GP1707D07 (HPLC-MS/MS, non-compartmental) in the GP681-itraconazole drug-drug interaction study
Format: in vivo, healthy Chinese subjects
Conditions: for Cmax / MRT0-t / MRT0-∞ / Tmax / Vz/F / t1/2 / λz / AUC0-t / AUC0-∞ / AUC_%Extrap / CL/F: Period 2, GP681 20 mg + itraconazole
Experimental: This single-center, open-label, self-controlled, fixed-sequence study, sponsored by Qingfeng Pharmaceutical Group Co., Ltd., was conducted at a single clinical research site in the China–Japan Friendship Hospital (Beijing, China). Each subject received the following treatment: Suraxavir Marboxil (GP681) 20 mg in the fasted state on day 1 and day 26. Itraconazole capsules (Sporanox®: Xi’an Yangsen Pharmaceutical Co., Ltd., China) 0.2 g twice daily (BID, bis in die) on day 22. Itraconazole 0.2 g daily from day 23 to day 36 [including day 26, when itraconazole was co-administrated with Suraxavir Marboxil (GP681)]. The washout period is 21 days (Figure 2). It should be noted that in the following sections, when discussing the PK profile, this study was divided into Period 1 (Suraxavir Marboxil (GP681) monotherapy, from day −1 to day 12), and Period 2 (Suraxavir Marboxil (GP681)-itraconazole co-administration, from day 21 to day 36). When discussion the safety profile, this study was divided into Stage 1 (Suraxavir Marboxil (GP681) monotherapy stage, from day 1 to day 21), Stage 2 (itraconazole monotherapy stage, from day 22 to day 25), and Stage 3 (Suraxavir Marboxil (GP681)-itraconazole co-administration stage, from d 26 to d 36).
Blood samples were collected at the following time points: pre–dose, 0.5, 1, 2, 3, 4, 5, 6, 8, 12, 24, 36, 48, 72, 120, 168, and 264 h post-dose on day 1 and day 26. In addition, a blood sample were collected before dosing on day 1 for genetic polymorphism assessment.
A validated high-performance liquid chromatography-tandem mass spectrometry (HPLC-MS/MS) method was used to determine plasma concentrations of Suraxavir Marboxil (GP681) and its active metabolite GP1707D07 at different times, with the quantification range of 0.3/0.3–300/300 ng/mL for Suraxavir Marboxil (GP681) and GP1707D07. The lower limit of quantification (LLOQ) for both compounds was 0.300 ng/mL. Phoenix® WinNonlin® 8.3 was used to estimate and analyze the pharmacokinetic parameters of non-compartmental model from plasma concentration data. Pharmacokinetic parameters included: maximum plasma concentration (Cmax), area under the plasma concentration-time curve extrapolated from time zero to infinity (AUC0- ∞ ), time to Cmax (Tmax), half-life (t1/2), λz, AUC_%Extrap, Vz/F, CL/F, and mean residence time (MRT).
Statistical analysis was performed using SAS (version 9.4 or above) software programming. Pharmacokinetic concentration analysis was based on Pharmacokinetic Analysis Concentration Set (PKCS). Individual and mean concentrations (mean ± SD) were plotted against planned blood sampling time points for the analyte on linear and semi-log scales. Pharmacokinetic parameter analysis was based on Pharmacokinetic Analysis Parameter Set (PKPS). Drug interaction analysis was based on Drug Interaction Set (DIS). The geometric mean ratios and their 90% confidence intervals of pharmacokinetic parameters Cmax, AUC0-t, and AUC0- ∞ under Suraxavir Marboxil (GP681) single dose and Suraxavir Marboxil (GP681)-itraconazole co-administration conditions were calculated after natural logarithm transformation, using a linear mixed effects model with subjects as random effects and treatment (combined/single) as fixed effects.
1.3 Pharmacokinetic Sample Collection and Processing: Pharmacokinetic Analysis: Approximately 4 mL of blood is collected each time into a tube containing sodium fluoride/potassium oxalate as an anticoagulant. The tube is then placed upright in an ice-water bath. The plasma samples are separated by centrifugation for the detection of GP681/GP1707D07 blood drug concentrations. Both sample collection and processing are conducted under white light conditions. […]

[1] = mean (SD), N = 4 (8 subjects with %AUCextrap >20% not included)

For `O=C1c2c(O)c(=O)ccn2N([C@@H]2c3ccccc3SCc3c2ccc(F)c3F)[C@@H]2COC3(CC3)CN12` [GP1707D07], the Cmax (geometric mean, N=12) was 22.0 ng/mL and 22.0359 ng/mL, the MRT0-t (geometric mean, N=12) was 91.828 h and the “MRT0-∞” value (geometric mean, N=12) was 170.5 h and 170.494 h. It also gave a Tmax (geometric mean, N=12) of 4.4 h, a Vz/F (geometric mean, N=12) of 1365.672 L and a t1/2 (geometric mean, N=12) of 125.561 h. The λz (geometric mean, N=12) was 0.0055 h⁻¹, the AUC0-t (individual subjects) was 2991.14 ng·h/mL and 2032.39 ng·h/mL and 1353.85 ng·h/mL and 2127.20 ng·h/mL and 1044.79 ng·h/mL and 2764.96 ng·h/mL and 1661.62 ng·h/mL and 2484.54 ng·h/mL and 2488.27 ng·h/mL and 2757.79 ng·h/mL and 1586.83 ng·h/mL and 2524.54 ng·h/mL and 2991.1 ng·h/mL and 2032.4 ng·h/mL and 1353.9 ng·h/mL and 1044.8 ng·h/mL and 2765.0 ng·h/mL and 1661.6 ng·h/mL and 2484.5 ng·h/mL and 2488.3 ng·h/mL and 2757.8 ng·h/mL and 1586.8 ng·h/mL and 2524.5 ng·h/mL and the “AUC0-∞” value (individual subjects) was 4071.31 ng·h/mL and 2952.73 ng·h/mL and 1815.81 ng·h/mL and 2809.94 ng·h/mL and 1322.58 ng·h/mL and 3386.84 ng·h/mL and 1943.92 ng·h/mL and 3038.12 ng·h/mL and 3010.01 ng·h/mL and 3496.61 ng·h/mL and 2164.09 ng·h/mL and 3287.23 ng·h/mL. For the same compound, the AUC_%Extrap (individual subjects) was 26.53% and 31.17% and 25.44% and 24.30% and 21.00% and 18.36% and 14.52% and 18.22% and 17.33% and 21.13% and 26.67% and 23.20%, the CL/F (individual subjects) was 4.91 L/h and 6.77 L/h and 11.01 L/h and 7.12 L/h and 15.12 L/h and 5.91 L/h and 10.29 L/h and 6.58 L/h and 6.64 L/h and 5.72 L/h and 9.24 L/h and 6.08 L/h and the Cmax (individual subjects) was 30.409 ng/mL and 21.586 ng/mL and 13.021 ng/mL and 20.877 ng/mL and 9.944 ng/mL and 32.652 ng/mL and 20.426 ng/mL and 33.588 ng/mL and 31.705 ng/mL and 26.988 ng/mL and 14.549 ng/mL and 26.492 ng/mL and 30.4 ng/mL and 21.6 ng/mL and 13.0 ng/mL and 20.9 ng/mL and 9.9 ng/mL and 32.7 ng/mL and 20.4 ng/mL and 33.6 ng/mL and 31.7 ng/mL and 27.0 ng/mL and 14.5 ng/mL and 26.5 ng/mL. For the same compound, the MRT0-t (individual subjects) was 95.36 h and 94.95 h and 95.71 h and 95.46 h and 92.09 h and 90.98 h and 84.46 h and 87.34 h and 83.83 h and 94.91 h and 93.53 h and 94.49 h, the “MRT0-∞” value (individual subjects) was 196.38 h and 225.05 h and 182.53 h and 178.20 h and 165.60 h and 151.62 h and 129.66 h and 149.99 h and 143.87 h and 168.40 h and 198.32 h and 178.88 h and the Tmax (individual subjects) was 6 h and 4 h and 5 h and 3 h. The Vz/F (individual subjects) was 1042.08 L and 1684.38 L and 1909.99 L and 1224.96 L and 2694.46 L and 929.93 L and 1355.33 L and 1100.32 L and 1104.05 L and 1021.99 L and 2056.61 L and 1181.94 L, the t1/2 (individual subjects) was 147.04 h and 172.37 h and 120.20 h and 119.29 h and 123.51 h and 109.15 h and 91.31 h and 115.86 h and 115.17 h and 123.85 h and 154.25 h and 134.65 h and the λz (individual subjects) was 0.005 h⁻¹ and 0.004 h⁻¹ and 0.006 h⁻¹ and 0.008 h⁻¹. For the same compound, the “AUC0-∞” value [1] was 2,844.7 (624.5) (N = 4) h*ng/mL, the CL/F [1] was 7.4 (2.0) (N = 4) L/h and the Vz/F [1] was 1,122.4 (175.2) (N = 4) L. For the same compound, the t1/2 [1] was 107.9 (11.4) (N = 4) h, the λz [1] was 0.007 (0.0008) (N = 4) h-1 and the AUC_%Extrap (mean, all 12 subjects) was 22.3 (4.8) % and 22.324%. For the same compound, the CL/F (mean, all 12 subjects) was 8.0 (2.9) L/h and 7.951 L/h, the Cmax (mean, all 12 subjects) was 23.5 (8.1) ng/mL and 23.5198 ng/mL and the MRT0-t (mean, all 12 subjects) was 91.9 (4.4) h and 91.926 h. The “MRT0-∞” value (mean, all 12 subjects) was 172.4 (26.7) h and 172.374 h, the Tmax (mean, all 12 subjects) was 4.5 h and the t1/2 (mean, all 12 subjects) was 127.2 (21.8) h and 127.221 h. For the same compound, the λz (mean, all 12 subjects) was 0.006 (0.0009) h-1 and 0.0056 h-1, the Tmax (median (range), N=12) was 4.5 (3.0–6.0) h and the AUC0-t (median, N=12) was 2305.872 ng·h/mL. For the same compound, the “AUC0-∞” value (median, N=12) was 2981.370 ng·h/mL, the AUC_%Extrap (median, N=12) was 22.166% and the CL/F (median, N=12) was 6.709 L/h. The Cmax (median, N=12) was 24.0390 ng/mL, the MRT0-t (median, N=12) was 94.010 h and the “MRT0-∞” value (median, N=12) was 173.300 h. The Vz/F (median, N=12) was 1203.452 L, the t1/2 (median, N=12) was 121.852 h and the λz (median, N=12) was 0.0057 h⁻¹. For the same compound, the half-life (Period 2, GP681 + itraconazole, statistic not stated (discussion)) was 107.4 h, the “increase of AUC0-t in Period 2 compared to Period 1” value (arithmetic means) was 107% and the “increase of AUC0-∞ in Period 2 compared to Period 1” value (arithmetic means) was 153%. The “increase of Cmax in Period 2 compared to Period 1” value (arithmetic means) was 22%, the “AUC0-t Ratio Period 2/Period 1” value (individual subjects) was 7.8 and 2.8 and 1.7 and 2.2 and 1.8 and 1.4 and 1.9 and 2.0 and 2.1 and the “Cmax Ratio Period 2/Period 1” value (individual subjects) was 8.0 and 1.7 and 0.8 and 1.8 and 1.3 and 1.6 and 1.1 and 0.6.
